Assay results: the CheMixHub viscosity set
“And” between values parts separate entries of the source, which are not always exact repeats. Equal values may be shown once.

Test: xn = mol fraction of the nth substance listed

CCCCOCCO + O
Conditions | viscosity
293.15 K, 101 kPa, x1 = 0.00631 | 1.166 mPa·s
293.15 K, 101 kPa, x1 = 0.0131 | 1.391 mPa·s
293.15 K, 101 kPa, x1 = 0.01666 | 1.507 mPa·s
293.15 K, 101 kPa, x1 = 0.03452 | 2.102 mPa·s
294.15 K, 101 kPa, x1 = 0.00631 | 1.136 mPa·s
294.15 K, 101 kPa, x1 = 0.0131 | 1.352 mPa·s
295.15 K, 101 kPa, x1 = 0.00631 | 1.106 mPa·s
295.15 K, 101 kPa, x1 = 0.0131 | 1.315 mPa·s
295.15 K, 101 kPa, x1 = 0.01666 | 1.421 mPa·s
295.15 K, 101 kPa, x1 = 0.03452 | 1.979 mPa·s
296.15 K, 101 kPa, x1 = 0.00631 | 1.079 mPa·s
296.15 K, 101 kPa, x1 = 0.0131 | 1.279 mPa·s
297.15 K, 101 kPa, x1 = 0.00631 | 1.052 mPa·s
297.15 K, 101 kPa, x1 = 0.0131 | 1.245 mPa·s
297.15 K, 101 kPa, x1 = 0.01666 | 1.342 mPa·s
297.15 K, 101 kPa, x1 = 0.03452 | 1.868 mPa·s
298.15 K, 101 kPa, x1 = 0.00631 | 1.026 mPa·s
298.15 K, 101 kPa, x1 = 0.0131 | 1.212 mPa·s
299.15 K, 101 kPa, x1 = 0.00631 | 1.001 mPa·s
299.15 K, 101 kPa, x1 = 0.0131 | 1.18 mPa·s
299.15 K, 101 kPa, x1 = 0.01666 | 1.271 mPa·s
299.15 K, 101 kPa, x1 = 0.03452 | 1.766 mPa·s
300.15 K, 101 kPa, x1 = 0.00631 | 0.9782 mPa·s
300.15 K, 101 kPa, x1 = 0.0131 | 1.15 mPa·s
301.15 K, 101 kPa, x1 = 0.00631 | 0.9547 mPa·s
301.15 K, 101 kPa, x1 = 0.0131 | 1.121 mPa·s
301.15 K, 101 kPa, x1 = 0.01666 | 1.205 mPa·s
301.15 K, 101 kPa, x1 = 0.03452 | 1.675 mPa·s
302.15 K, 101 kPa, x1 = 0.00631 | 0.9328 mPa·s
302.15 K, 101 kPa, x1 = 0.0131 | 1.092 mPa·s
303.15 K, 101 kPa, x1 = 0.00631 | 0.9113 mPa·s
303.15 K, 101 kPa, x1 = 0.0131 | 1.066 mPa·s
303.15 K, 101 kPa, x1 = 0.01666 | 1.144 mPa·s
303.15 K, 101 kPa, x1 = 0.03452 | 1.592 mPa·s
304.15 K, 101 kPa, x1 = 0.00631 | 0.891 mPa·s
304.15 K, 101 kPa, x1 = 0.0131 | 1.04 mPa·s
305.15 K, 101 kPa, x1 = 0.00631 | 0.8711 mPa·s
305.15 K, 101 kPa, x1 = 0.0131 | 1.015 mPa·s
305.15 K, 101 kPa, x1 = 0.01666 | 1.089 mPa·s
305.15 K, 101 kPa, x1 = 0.03452 | 1.515 mPa·s
306.15 K, 101 kPa, x1 = 0.00631 | 0.8521 mPa·s
306.15 K, 101 kPa, x1 = 0.0131 | 0.9916 mPa·s
307.15 K, 101 kPa, x1 = 0.00631 | 0.8342 mPa·s
307.15 K, 101 kPa, x1 = 0.0131 | 0.9686 mPa·s
307.15 K, 101 kPa, x1 = 0.01666 | 1.038 mPa·s
307.15 K, 101 kPa, x1 = 0.03452 | 1.445 mPa·s
308.15 K, 101 kPa, x1 = 0.00631 | 0.8158 mPa·s
308.15 K, 101 kPa, x1 = 0.0131 | 0.9465 mPa·s
308.15 K, 101 kPa, x1 = 0.037 | 1.465 mPa·s and 1.465 mPa·s
308.15 K, 101.33 kPa, x2 = 0.3047 | 2.388 mPa·s
308.15 K, 101.33 kPa, x2 = 0.4017 | 2.477 mPa·s
308.15 K, 101.33 kPa, x2 = 0.4974 | 2.624 mPa·s
308.15 K, 101.33 kPa, x2 = 0.5973 | 2.835 mPa·s
308.15 K, 101.33 kPa, x2 = 0.697 | 2.955 mPa·s
308.15 K, 101.33 kPa, x2 = 0.8047 | 2.873 mPa·s
308.15 K, 101.33 kPa, x2 = 0.8972 | 2.245 mPa·s
308.15 K, 101.33 kPa, x2 = 0.9497 | 1.576 mPa·s
309.15 K, 101 kPa, x1 = 0.00631 | 0.799 mPa·s
309.15 K, 101 kPa, x1 = 0.0131 | 0.9251 mPa·s
309.15 K, 101 kPa, x1 = 0.01666 | 0.9913 mPa·s
309.15 K, 101 kPa, x1 = 0.03452 | 1.381 mPa·s
310.15 K, 101 kPa, x1 = 0.00631 | 0.7823 mPa·s
310.15 K, 101 kPa, x1 = 0.0131 | 0.9045 mPa·s
311.15 K, 101 kPa, x1 = 0.00631 | 0.7663 mPa·s
311.15 K, 101 kPa, x1 = 0.0131 | 0.8847 mPa·s
311.15 K, 101 kPa, x1 = 0.01666 | 0.9476 mPa·s
311.15 K, 101 kPa, x1 = 0.03452 | 1.322 mPa·s
312.15 K, 101 kPa, x1 = 0.00631 | 0.7507 mPa·s
312.15 K, 101 kPa, x1 = 0.0131 | 0.8657 mPa·s
313.15 K, 101 kPa, x1 = 0.00631 | 0.7357 mPa·s
313.15 K, 101 kPa, x1 = 0.0131 | 0.8474 mPa·s
313.15 K, 101 kPa, x1 = 0.01666 | 0.907 mPa·s
313.15 K, 101 kPa, x1 = 0.03452 | 1.268 mPa·s
313.15 K, 101 kPa, x1 = 0.6 | 2.465 mPa·s
314.15 K, 101 kPa, x1 = 0.00631 | 0.7211 mPa·s
314.15 K, 101 kPa, x1 = 0.0131 | 0.8294 mPa·s
315.15 K, 101 kPa, x1 = 0.00631 | 0.7073 mPa·s
315.15 K, 101 kPa, x1 = 0.0131 | 0.8121 mPa·s
315.15 K, 101 kPa, x1 = 0.01666 | 0.8696 mPa·s
315.15 K, 101 kPa, x1 = 0.03452 | 1.218 mPa·s
316.15 K, 101 kPa, x1 = 0.00631 | 0.6935 mPa·s
316.15 K, 101 kPa, x1 = 0.0131 | 0.7957 mPa·s
317.15 K, 101 kPa, x1 = 0.00631 | 0.6799 mPa·s
317.15 K, 101 kPa, x1 = 0.0131 | 0.7795 mPa·s
317.15 K, 101 kPa, x1 = 0.01666 | 0.8346 mPa·s
317.15 K, 101 kPa, x1 = 0.03452 | 1.173 mPa·s
318.15 K, 101 kPa, x1 = 0.00631 | 0.6676 mPa·s
318.15 K, 101 kPa, x1 = 0.0131 | 0.764 mPa·s
318.15 K, 101 kPa, x1 = 0.03452 | 1.151 mPa·s
319.15 K, 101 kPa, x1 = 0.00631 | 0.6552 mPa·s
319.15 K, 101 kPa, x1 = 0.0131 | 0.7487 mPa·s
319.15 K, 101 kPa, x1 = 0.01666 | 0.8021 mPa·s
319.15 K, 101 kPa, x1 = 0.03452 | 1.131 mPa·s
320.15 K, 101 kPa, x1 = 0.00631 | 0.6431 mPa·s
320.15 K, 101 kPa, x1 = 0.0131 | 0.7347 mPa·s
320.15 K, 101 kPa, x1 = 0.03452 | 1.113 mPa·s
320.65 K, 101 kPa, x1 = 0.03452 | 1.104 mPa·s
321.15 K, 101 kPa, x1 = 0.00631 | 0.6313 mPa·s
321.15 K, 101 kPa, x1 = 0.0131 | 0.7202 mPa·s
321.15 K, 101 kPa, x1 = 0.01666 | 0.7716 mPa·s
321.15 K, 101 kPa, x1 = 0.03452 | 1.096 mPa·s
321.65 K, 101 kPa, x1 = 0.03452 | 1.088 mPa·s
322.15 K, 101 kPa, x1 = 0.00631 | 0.6205 mPa·s
322.15 K, 101 kPa, x1 = 0.0131 | 0.7065 mPa·s
323.15 K, 101 kPa, x1 = 0.00631 | 0.6094 mPa·s
323.15 K, 101 kPa, x1 = 0.0131 | 0.6934 mPa·s
323.15 K, 101 kPa, x1 = 0.01666 | 0.743 mPa·s
